Assay results reported in patent publication US20260191849A1, “PHARMACEUTICAL COMPOSITION FOR TREATMENT OF CANCER” (WIGEN BIOMEDICINE TECHNOLOGY (SHANGHAI) CO., LTD., priority 2022, published 2026).
Like-named read-outs stand apart in the source and are kept apart here.

Tests used:
HT29 cells = assay: Combined use of compound 257, AMG650 or Compound A with PLK1 inhibitor on HT29 cell viability, 168 h (Biological Example 19); type: cell-based; settings: for IC50: HT29 cells
Experimental: HT29 cells were seeded on a 384-well plate at 3000 cells/well.

HCT116 cells = assay: Combined use of compound 257, AMG650 or Compound A with PLK1 inhibitor on HCT116 cell viability, 168 h (Biological Example 20); type: cell-based
Experimental: HCT116 cells were seeded on a 384-well plate at 3000 cells/well. After overnight adherence culture, DMSO or compound 257, AMG650, or Compound A serially diluted in a 1:5 ratio from 400 nM and a PLK1 inhibitor with a specified concentration were added. The cell viability was assessed 168 h after dosing by measuring the intracellular ATP content. The inhibition percentages of viable cells by the compounds were calculated by comparing with the DMSO group, and the IC50 values were also calculated.

For `COc1cc(C(=O)N[C@H]2CC[C@H](N3CCN(C)CC3)CC2)ccc1Nc1ncc2c(n1)N(C1CCCC1)CC1(CC1)C(=O)N2C` [CYC140 (Plogosertib), Plogosertib], the IC50 (HT29 cells; KIF18A inhibitor AMG650 0.0001 nM, read-out: PLK1 inhibitor IC50) was 50.1 nM, the IC50 (HT29 cells; KIF18A inhibitor AMG650 0.64 nM, read-out: PLK1 inhibitor IC50) was 48.9 nM and the IC50 (HT29 cells; KIF18A inhibitor AMG650 3.2 nM, read-out: PLK1 inhibitor IC50) was 49.9 nM. It also gave an IC50 (HT29 cells; KIF18A inhibitor AMG650 16 nM, read-out: PLK1 inhibitor IC50) of 24.9 nM, an IC50 (HT29 cells; KIF18A inhibitor AMG650 80 nM, read-out: PLK1 inhibitor IC50) of 7.9 nM and an IC50 (HT29 cells; KIF18A inhibitor AMG650 400 nM, read-out: PLK1 inhibitor IC50) of 3.5 nM. For the same compound, the IC50 (HT29 cells; KIF18A inhibitor Compound 257 0.0001 nM, read-out: PLK1 inhibitor IC50) was 52.1 nM, the IC50 (HT29 cells; KIF18A inhibitor Compound 257 0.64 nM, read-out: PLK1 inhibitor IC50) was 37 nM and the IC50 (HT29 cells; KIF18A inhibitor Compound 257 3.2 nM, read-out: PLK1 inhibitor IC50) was 15.5 nM. The IC50 (HT29 cells; KIF18A inhibitor Compound 257 16 nM, read-out: PLK1 inhibitor IC50) was 3.8 nM, the IC50 (HT29 cells; KIF18A inhibitor Compound 257 80 nM, read-out: PLK1 inhibitor IC50) was 1.6 nM and the IC50 (HT29 cells; KIF18A inhibitor Compound 257 400 nM, read-out: PLK1 inhibitor IC50) was 2.2 nM.

In the case of `CCS(=O)(=O)Nc1ccc2c(c1)C1(CCC3(CC3)CC1)CN2C(=O)c1cccc(S(=O)(=O)NC(C)(C)C)c1` [Compound A], the “inhibitory effect on HT-29 cells, combined use with the PLK1 inhibitor compared with monotherapy” value (HT29 cells; CYC140 or TAK-960, in words) is reported as “stronger inhibitory effect”, the IC50 (HT29 cells; Homo sapiens, HT-29, 168 h, CYC140 (Plogosertib) 0.0001 nM, read-out: IC50) is reported as 26.1 nM and the IC50 (HT29 cells; Homo sapiens, HT-29, 168 h, CYC140 (Plogosertib) 1.6 nM, read-out: IC50) is reported as 19.6 nM. The IC50 (HT29 cells; Homo sapiens, HT-29, 168 h, CYC140 (Plogosertib) 8 nM, read-out: IC50) was 15.5 nM, the IC50 (HT29 cells; Homo sapiens, HT-29, 168 h, CYC140 (Plogosertib) 40 nM, read-out: IC50) was 2.2 nM and the IC50 (HT29 cells; Homo sapiens, HT-29, 168 h, TAK-960 0.0001 nM, read-out: IC50) was 23.8 nM. The IC50 (HT29 cells; Homo sapiens, HT-29, 168 h, TAK-960 1.6 nM, read-out: IC50) was 17.3 nM, the IC50 (HT29 cells; Homo sapiens, HT-29, 168 h, TAK-960 8 nM, read-out: IC50) was 4.2 nM and the IC50 (HT29 cells; Homo sapiens, HT-29, 168 h, TAK-960 40 nM, read-out: IC50) was 4.1 nM. For the same compound, the “synergistic effect on HCT116 cell viability, combined use with the PLK1 inhibitor” value (HCT116 cells; CYC140 or TAK-960, in words) was “no significant synergistic effect”, the IC50 (HCT116 cells; HCT116 cells, CYC140 (Plogosertib) 1.6 nM) was over 400 nM and the IC50 (HCT116 cells; HCT116 cells, CYC140 (Plogosertib) 8 nM) was over 400 nM. It also gave an IC50 (HCT116 cells; HCT116 cells, CYC140 (Plogosertib) 40 nM) of over 400 nM, an IC50 (HCT116 cells; HCT116 cells, TAK-960 0 nM) of over 400 nM and an IC50 (HCT116 cells; HCT116 cells, TAK-960 1.6 nM) of over 400 nM. For the same compound, the IC50 (HCT116 cells; HCT116 cells, TAK-960 8 nM) was over 400 nM, the IC50 (HCT116 cells; HCT116 cells, TAK-960 40 nM) was over 400 nM and the IC50 (HCT116 cells; Homo sapiens, HCT-116, HCT116 cells, CYC140 (Plogosertib) 0 nM) was over 400 nM. For the same compound, the “anti-proliferative activity against HCT116 cells, monotherapy” value (HCT116 cells; in words) was “did not exhibit anti-proliferative activity”.
